Key:
laboratory rats [1] = conditions: Literature reference; 20160 min; cited from earlier work
hypercholesteremic rat = experiment: Hypercholesteremic test (serum cholesterol and triglycerides); assay type: in vivo; conditions: for Serum Cholesterol / Serum Triglycerides: hypercholesteremic rat (2% cholesterol, 1% cholic acid diet); for Serum Cholesterol, Lowering % / Serum Triglycerides, Lowering %: hypercholesteremic rat, vs control
Description: (§1) In contrast therewith, the inventive compounds having the general formula (I) show based on the normal lipemic as well as the hypercholesteremic rat models, a distinct anti-lipemic and, in particular anti-cholesteremic effect. […] This activity loss of clofibrate on the hyperlipemic demands is also found a number of times in the literature. The antilipemic activity of the inventive compounds, as well as that of clofibrate as the reference substance, was determined on a normal lipemic CFY-rat during an examination time period of 14 days. During this time, the animals received a normal laboratory diet. (Spratt's No. 1).
(§2) After a 4-day acclimatization period the animals orally received the test compound as a suspension in 1% tragacanth-solution, or the vehicle alone (control group). The control-group consisted of 20 animals, while the test groups contained 10 animals. 24 hours after the last administration, blood samples were taken for determining the serum triglycerides and serum cholesterol level.
The hypercholesteremic test was carried out on the same animals and under the same examining conditions, as was carried out in the normal lipemic test. The animals received a normal laboratory diet (Spratt's No. 2), having added thereto 2% cholesterol and 1% cholic acid.

normal lipemic CFY-rat = experiment: Normolipemic test (serum cholesterol and triglycerides); assay type: in vivo; conditions: 14 days; for Serum Cholesterol / Serum Triglycerides: 24 h after last administration; for Serum Cholesterol, Lowering % / Serum Triglycerides, Lowering %: vs control
Description: as §1, §2

[2] = in vivo; cited from earlier work
[3] = tested on: galactosamine-hepatitis-model; conditions: Arzneimittel-Forschung 23, 56, 1973, cited from earlier work
[4] = Pharmacological screening for 51 pharmacological parameters; assay type: in vivo
mouse = experiment: Pharmacological screening, abdominal tone in the mouse; assay type: in vivo; conditions: 100 mg/kg intraperitoneal
[5] = Acute oral toxicity (LD50, Litchfield and Wilcoxon); assay type: in vivo; conditions: in vivo, rat, suspension in 0.5% aqueous Tween 80, observation 14 days
Description: (§3) The acute oral toxicity of the inventive compounds of Examples 18 and 23 was tested on, respectively, five male and female laboratory rats each having a weight of 200 ± 20g. The compounds tested were prepared as suspension in 0.5 %-aqueous Tween 80-solution. The observation time period was 14 days. The determination of the LD50 -values was carried out pursuant to the methods of Litchfield and Wilcoxon.

laboratory rats [6] = experiment: as above; assay type: in vivo; conditions: rat, 14 days, Litchfield and Wilcoxon
Description: as §3

| SMILES | Serum Cholesterol (hypercholesteremic rat; 300 mg/kg oral) | Serum Triglycerides (hypercholesteremic rat; 300 mg/kg oral) | Serum Cholesterol, Lowering % (hypercholesteremic rat; 300 mg/kg oral) | Serum Cholesterol (normal lipemic CFY-rat; 300 mg/kg oral) | Serum Triglycerides (normal lipemic CFY-rat; 300 mg/kg oral) | Serum Cholesterol, Lowering % (normal lipemic CFY-rat; 300 mg/kg oral) | Serum Triglycerides, Lowering % (normal lipemic CFY-rat; 300 mg/kg oral) | Serum Cholesterol (hypercholesteremic rat; 100 mg/kg oral) | Serum Triglycerides (hypercholesteremic rat; 100 mg/kg oral) | side effects in pharmacological screening [4] | Serum Cholesterol (normal lipemic CFY-rat; 100 mg/kg oral) | Serum Triglycerides (normal lipemic CFY-rat; 100 mg/kg oral) | Serum Triglycerides, Lowering % (normal lipemic CFY-rat; 100 mg/kg oral) | Serum Cholesterol, Lowering % (hypercholesteremic rat; 100 mg/kg oral) | other results |
| --- | --- | --- | --- | --- | --- | --- | --- | --- | --- | --- | --- | --- | --- | --- | --- |
| CCOC(=O)C(C)(C)Oc1ccc(Cl)cc1 [Clofibrate, 2-(p-chlorophenoxy)-2-methylpropionic acid ethyl ester, reference compound] | 347.9 mg % | 75.6 mg % | 3.0% | 56.1 mg % | 66.5 mg % | 27.0% | 46.3% | – | – | – | – | – | – | – | LD50 (laboratory rats [1]): ~1200 mg/kg; activity on the hypercholesteremic models (in words) (hypercholesteremic rat; hypercholesteremic models): shows no more activity; Serum Triglycerides, Lowering % (hypercholesteremic rat; 300 mg/kg oral): 12.5% |
| CC(C)(S)[C@@H](N)C(=O)O [D-penicillamine] | – | – | – | – | – | – | – | – | – | – | – | – | – | – | known side effects [2]: allergic reactions, leukopenia or gastrointestinal disturbances; influence on lipid material exchange (in words) [3]: satisfactory influence on lipid material exchange; liver protective effect; release of SH-groups, stimulation of nucleic acids and protein synthesis (in words) ([3]; galactosamine-hepatitis-model): These properties are also shown by D-penicillamine |
| CC(C)(Oc1ccc(Cl)cc1)C(=O)NCC1NC(C(=O)O)C(C)(C)S1 (centres unmarked) [Example 17] | 296.1 mg % | 96.4 mg % | 7.2% | 81.5 mg % | 91.2 mg % | 13.1% | – | 353.8 mg % | 85.0 mg % | no special side effects were seen | 81.8 mg % | 77.3 mg % | 11.2% | – | Serum Triglycerides, Lowering % (hypercholesteremic rat; 100 mg/kg oral): 1.2%; Serum Cholesterol, Lowering % (normal lipemic CFY-rat; 100 mg/kg oral): 12.8% |
| CC(Oc1ccc(Cl)cc1)C(=O)N1C(C(=O)O)C(C)(C)SC1(C)C (centres unmarked) [Example 18, 2,2,5,5-tetramethyl-3-2-(p-chlorophenoxy)propionyl!-thiazolidine-4-carboxylic acid] | 470.3 mg % | 72.4 mg % | 20.5% | 95.3 mg % | 82.5 mg % | – | 12.6% | 412.9 mg % | 71.4 mg % | no special side effects were seen | 95.8 mg % | 68.7 mg % | 27.2% | 30.2% | abdominal tone (mouse): a small reduction of the abdominal tone was observed; LD50 at 336 h [5]: > 5000 mg/kg |
| CC(C)(Oc1ccc(Cl)cc1)C(=O)N1C(C(=O)O)C(C)(C)SC1(C)C (centres unmarked) [Example 19] | 595.6 mg % | 66.0 mg % | – | 82.0 mg % | 72.7 mg % | 4.9% | 23.0% | 549.1 mg % | 65.9 mg % | – | 93.1 mg % | 75.2 mg % | 20.3% | 7.1% | – |
| CC1(C)SC(C)(C)N(C(=O)COc2ccc(Cl)cc2)C1C(=O)O (centres unmarked) [Example 20, 2,2,5,5-tetramethyl-3-(p-chlorophenoxyacetyl)-thiazolidine-4-carboxylic acid] | 479.6 mg % | 92.2 mg % | 18.9% | 73.0 mg % | 66.0 mg % | 15.3% | 30.1% | 503.9 mg % | 88.1 mg % | – | 87.8 mg % | 67.6 mg % | 28.4% | 14.8% | – |
| CC(C)(Oc1ccc(Cl)cc1)C(=O)NCC1SC(C)(C)C(C(=O)O)N1C(=O)COc1ccc(Cl)cc1 (centres unmarked) [Example 21, 2-2-(p-chlorophenoxy)-2-methyl-propionylamidomethyl!-5,5-dimethyl-3-(p-chlorophenoxyacetyl)-thilazolidine-4-carboxylic acid] | 465.1 mg % | 41.3 mg % | – | 90.8 mg % | 72.4 mg % | 5.9% | – | 501.2 mg % | 51.0 mg % | no special side effects were seen | 89.4 mg % | 59.1 mg % | 11.4% | – | Serum Triglycerides, Lowering % (hypercholesteremic rat; 100 mg/kg oral): 5.9%; Serum Triglycerides, Lowering % (hypercholesteremic rat; 300 mg/kg oral): 23.9%; Serum Cholesterol, Lowering % (normal lipemic CFY-rat; 100 mg/kg oral): 7.3% |
| CC1(C)SC2(CCCCC2)N(C(=O)COc2ccc(Cl)cc2)C1C(=O)O (centres unmarked) [Example 23] | – | – | – | – | – | – | – | – | – | – | – | – | – | – | Effective limits (of LD50) (laboratory rats [6]): 3680 to 5130 mg/kg; LD50 at 336 h [5]: 4350 mg/kg |
